Data published in US5869265A, “Ileal bile acid transporter compositions and methods” (Wake Forest University, priority 1996, dated 1999).
Where two headings read alike, the source gives them in different places. Blank lines part the entries; values can stand above or below the compound they belong to.

Columns and labels:
liver membranes = conditions: cited from earlier work
[1] = molecular target: T1, ileal Na^+ /bile acid cotransporter (IBAT) (Cricetulus griseus, UniProt Q60414); assay: Inhibition of [^3 H]taurocholate uptake by organic anions in pIBAT-transfected COS cells (FIG. 6B); assay type: cell-based, hamster; conditions: 100 μM unlabeled inhibitor, 5 μM [^3 H]taurocholate
T1 construct: The hamster IBAT cDNA encodes a protein of 348 amino acids; expressed in transfected cells; host or cells: COS-1 cells, transient DEAE-dextran transfection with pIBAT (cDNA in pCMX)
T1 sequence (Q60414 1-348): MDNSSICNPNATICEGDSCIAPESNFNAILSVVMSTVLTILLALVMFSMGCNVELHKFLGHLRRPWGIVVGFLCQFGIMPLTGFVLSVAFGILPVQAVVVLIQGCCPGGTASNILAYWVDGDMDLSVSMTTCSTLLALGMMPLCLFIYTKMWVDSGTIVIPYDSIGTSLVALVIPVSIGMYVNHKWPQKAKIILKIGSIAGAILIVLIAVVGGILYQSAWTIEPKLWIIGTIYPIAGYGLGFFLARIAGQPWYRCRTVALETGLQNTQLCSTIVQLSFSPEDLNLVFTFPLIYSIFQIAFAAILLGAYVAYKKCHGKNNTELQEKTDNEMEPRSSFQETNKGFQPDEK
Protocol: FIG. 6B. […] COS cells were plated and transfected as described in the description of FIG. 4 (immediately above).
(§1) On day 0, dishes of 1.50×10^6 cells per 100-mm dish were plated in medium A. On day 1, the cells were transfected by the DEAE-dextran method (Esser et al., 1988) with 5 μg plasmid DNA. […] After the indicated amount of time at 37° C., the medium was removed, and each cell monolayer was washed and processed to determine cell-associated protein and radioactivity as described above.

[2] = molecular target: T2, human ileal/renal bile acid transporter (Homo sapiens, UniProt Q12908, S171A); assay: Substrate specificity: [^3 H]taurocholate competition in HIBAT-transfected COS cells (Dixon plot); assay type: cell-based; set-up: were fused to make a single clone encoding the entire gene; expressed in transfected cells; host or cells: COS cells, transient DEAE-dextran transfection with pCMV5-HIBAT
T2 sequence (Q12908 1-348 S171A): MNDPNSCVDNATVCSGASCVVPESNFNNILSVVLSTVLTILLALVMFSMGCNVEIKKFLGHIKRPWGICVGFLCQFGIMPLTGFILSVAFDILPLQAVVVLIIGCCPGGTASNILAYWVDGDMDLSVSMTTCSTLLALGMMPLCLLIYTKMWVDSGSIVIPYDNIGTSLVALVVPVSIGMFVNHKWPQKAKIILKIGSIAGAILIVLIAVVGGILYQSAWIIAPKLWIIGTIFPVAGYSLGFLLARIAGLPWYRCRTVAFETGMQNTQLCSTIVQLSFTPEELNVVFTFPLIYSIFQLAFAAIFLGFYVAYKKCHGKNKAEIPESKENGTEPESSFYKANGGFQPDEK
Description: It is the ileal/renal bile acid transporter system's remarkable substrate specificity that makes it an appealing pharmacological target for the treatment of hypercholesterolemia by interrupting the enterohepatic circulation of bile acids. […] These studies of the major bile acid species were later extended in animal model systems to include various chemical derivatives of bile acids. However, the affinity of the human ileal/renal bile acid transporter for these natural bile acids has never been studied systematically. In addition to bile acids, the transport of other organic anions has been studied. […] The Km, Vmax, and Ki values were determined using Eadie-Hofstee and Dixon plot analysis.

[3] = tested on: ileal/renal bile acid transporter; conditions: cation replacing Na^+; cited from earlier work
[4] = molecular target: T3, human ileal/renal bile acid transporter (Homo sapiens, UniProt Q12908); assay: Cation specificity of taurocholate uptake in HIBAT-transfected COS cells; assay type: cell-based; conditions: 137 mM cation, 5 μM [^3 H]taurocholate, 15 min, 37° C., mean±SD of triplicate
T3 construct: were fused to make a single clone encoding the entire gene; expressed in transfected cells; host or cells: COS cells, transient DEAE-dextran transfection with pCMV5-HIBAT
T3 sequence (Q12908 1-348 S171A): T2 sequence (Q12908 1-348 S171A)
Protocol: (§2) COS cells were seeded (1.5×10^6 cells/100 mm dish) in DMEM and transfected the following day with pCMV5-HIBAT or pCMV2-βgalactosidase (5 μg) by the DEAE-dextran method. On day 2, each group of transfected cells was treated with trypsin, pooled, and replated in 24-well culture plates at 7×10^4 cells/well. […] The cells were then lysed in 0.1N NaOH and aliquots were taken to determine protein and cell-associated radioactivity. […] Data are also given as percentage of control (uptake in the presence of sodium).

[5] = molecular target: T2, human ileal/renal bile acid transporter; assay: Anion specificity of taurocholate uptake in HIBAT-transfected COS cells; conditions: for Taurocholate Uptake, percentage of control: control = uptake in the presence of NaCl, 15 min, 137000 µM; for taurocholate uptake on replacing chloride (in words): anion in place of chloride
Protocol: COS cells were seeded (1.5×10^6 cells/100 mm dish) in DMEM and transfected the following day with pCMV5-HIBAT or pCMV2-βgalactosidase (5 μg) by the DEAE-dextran method. On day 2, each group of transfected cells was treated with trypsin, pooled, and replated in 24-well culture plates at 7×10^4 cells/well. […] The cells were then lysed in 0.1N NaOH and aliquots were taken to determine protein and cell-associated radioactivity. […] Data are also given as percentage of control (uptake in the presence of NaCl).

[6] = tested on: liver taurocholate uptake; conditions: cited from earlier work
ileal transporter = conditions: in vivo; cited from earlier work
[7] = molecular target: T1, ileal Na^+ /bile acid cotransporter (IBAT); assay: Competition for [^3 H]taurocholate uptake in pIBAT-transfected COS cells (transport specificity, FIG. 6A); assay type: cell-based, hamster; conditions: for effect on [^3 H]taurocholate uptake (in words): 50 μM competitor, compared with taurocholate; for inhibition of [^3 H]taurocholate uptake: 50 μM unlabeled competitor, 5 μM [^3 H]taurocholate (10-fold molar excess)
Protocol: FIG. 6A. Transport specificity of pIBAT-transfected COS cells in the presence of competitors. COS cells were plated and transfected as described in the description of FIG. 4 (immediately above).
as §1
To examine the transport specificity of the IBAT protein, COS cells were transfected with the IBAT cDNA and incubated with 50 μM unlabeled bile acid or other competitor.

[8] = molecular target: T1, ileal Na^+ /bile acid cotransporter (IBAT); assay: Sodium-dependence of taurocholate uptake in IBAT-transfected COS cells; assay type: cell-based, hamster
Protocol: as §1

[9] = molecular target: T2, human ileal/renal bile acid transporter; assay: Cation specificity of taurocholate uptake in HIBAT-transfected COS cells; assay type: cell-based; set-up: were fused to make a single clone encoding the entire gene; expressed in transfected cells; host or cells: COS cells, transient DEAE-dextran transfection with pCMV5-HIBAT; conditions: for Taurocholate Uptake, percentage of control: control = uptake in the presence of sodium, 15 min, 137000 µM
Protocol: as §2

cholestasis = conditions: patients with cholestasis; cited from earlier work

Compound: O=C1OC(c2ccc(O)c(S(=O)(=O)O)c2)(c2ccc(O)c(S(=O)(=O)O)c2)c2c(Br)c(Br)c(Br)c(Br)c21 [BSP, bromosulfophthalein]
- inhibition of Na^+ -dependent taurocholate uptake (in words) (liver membranes): shown to inhibit
- inhibition of [^3 H]taurocholate uptake (in words) [1]: not to be significantly inhibited
- inhibition of [^3 H]taurocholate uptake (in words) ([1]; listed as bromosulfophthalein (BSP)): not inhibited

- Ki ([2]; read-out: Apparent Ki): 28.4 ± 7.4 µM
Compound: C[C@H](CCC(=O)NCCS(=O)(=O)O)[C@H]1CC[C@H]2[C@@H]3[C@@H](O)C[C@@H]4C[C@H](O)CC[C@]4(C)[C@H]3CC[C@]12C [Tauroursodeoxycholate]

Compound: [Li] [Lithium]
- effect of replacing Na^+ on active taurocholate transport (in words) [3]: significantly inhibited
- Taurocholate Uptake [4]: 0.3 ± 0.04 pmol/min/mg

- Taurocholate Uptake, percentage of control [5]: 69%
Compound: O=S(=O)(O)O [Sulfate]

Compound: phalloidin
- competition for liver taurocholate uptake (in words) [6]: compete for liver taurocholate uptake
- effect against the ileal transporter (in words) (ileal transporter): ineffective

- effect on [^3 H]taurocholate uptake (in words) [7]: limited effect
Compound: NCCS(=O)(=O)O [taurine]

- taurocholate uptake on replacing chloride (in words) [5]: markedly reduced
- Taurocholate Uptake, percentage of control [5]: 31%
Compound: Phosphate

Compound: C[C@H](CCC(=O)O)[C@H]1CC[C@H]2[C@@H]3CC[C@@H]4C[C@H](O)CC[C@]4(C)[C@H]3C[C@H](O)[C@]12C [Deoxycholate]
- Ki [2]: 6.4 ± 2.5 µM

- inhibition of [^3 H]taurocholate uptake (in words) [1]: not to be significantly inhibited
- inhibition of [^3 H]taurocholate uptake (in words) ([1]; listed as 4,4'-diisothiocyano-2,2'-disulfonic acid stilbene (DIDS)): not inhibited
Compound: O=S(=O)(O)c1cc(N=C=S)ccc1C=Cc1ccc(N=C=S)cc1S(=O)(=O)O [DIDS, 4,4'-diisothiocyano-2,2'-disulfonic acid stilbene]
- inhibition of Na^+ -dependent taurocholate uptake (in words) (liver membranes): shown to inhibit
- competition for liver taurocholate uptake (in words) [6]: compete for liver taurocholate uptake
- effect against the ileal transporter (in words) (ileal transporter): ineffective

Compound: C[C@H](CCC(=O)O)[C@H]1CC[C@H]2[C@@H]3[C@H](O)C[C@@H]4C[C@H](O)CC[C@]4(C)[C@H]3C[C@H](O)[C@]12C [Cholate]
- inhibition of [^3 H]taurocholate uptake [7]: 51%

- taurocholate uptake (100% of control value) ([8]; 137 mM sodium, 5 μM [^3 H]taurocholate, 15 minutes): 134±26 pmoles min^-1 mg^-1 protein
- Taurocholate Uptake, percentage of control [9]: 100%
- Taurocholate Uptake [4]: 9.2 ± 0.41 pmol/min/mg
Compound: [Na+] [Sodium]

Compound: CC(=O)O [Acetate, sodium acetate]
- taurocholate uptake on replacing chloride (in words) [5]: markedly reduced

- Taurocholate Uptake, percentage of control [9]: 3%
- Taurocholate Uptake [4]: 0.3 ± 0.09 pmol/min/mg
Compound: [Rb] [Rubidium]
- effect of replacing Na^+ on active taurocholate transport (in words) [3]: significantly inhibited

Compound: Cl [Chloride]
- Taurocholate Uptake, percentage of control [5]: 100%

Compound: CC1(C)C(/C=C/C=C/C=C/C=C2\N(CCCCS(=O)(=O)O)c3ccc4ccccc4c3C2(C)C)=[N+](CCCCS(=O)(=O)[O-])c2ccc3ccccc3c21 [indocyanine green]
- competition for liver taurocholate uptake (in words) [6]: compete for liver taurocholate uptake
- effect against the ileal transporter (in words) (ileal transporter): ineffective

Compound: C[C@H](CCC(=O)O)[C@H]1CC[C@H]2[C@@H]3[C@H](O)C[C@@H]4C[C@H](O)CC[C@]4(C)[C@H]3CC[C@]12C [Chenodeoxycholate]
- Ki [2]: 3.3 ± 1.9 µM

- effect on [^3 H]taurocholate uptake (in words) [7]: competed more effectively
- effect on [^3 H]taurocholate uptake (in words) ([7]; listed as taurochenodeoxycholic acid): more effective competitors
- inhibition of [^3 H]taurocholate uptake [7]: 87%
- Ki ([2]; read-out: Apparent Ki): 3.2 ± 0.5 µM
Compound: C[C@H](CCC(=O)NCCS(=O)(=O)O)[C@H]1CC[C@H]2[C@@H]3[C@H](O)C[C@@H]4C[C@H](O)CC[C@]4(C)[C@H]3CC[C@]12C [Taurochenodeoxycholate, taurochenodeoxycholate]

Compound: O=C(O)CC(O)(CC(=O)O)C(=O)O [Citrate]
- taurocholate uptake on replacing chloride (in words) [5]: markedly reduced

- support of [^3 H]taurocholate uptake (in words) ([8]; in place of 137 mM Na^+, equal concentration): unable to support
- taurocholate uptake on replacing Na^+ (in words) ([9]; cation replacing Na^+): dramatically reduced
- Taurocholate Uptake, percentage of control [9]: 3%
- Taurocholate Uptake [4]: 0.3 ± 0.17 pmol/min/mg
Compound: [K+] [Potassium]
- effect of replacing Na^+ on active taurocholate transport (in words) [3]: significantly inhibited

- Taurocholate Uptake, percentage of control [9]: 2%
- Taurocholate Uptake [4]: 0.2 ± 0.01 pmol/min/mg
Compound: [Cs+] [Cesium]
- effect of replacing Na^+ on active taurocholate transport (in words) [3]: significantly inhibited

Compound: C[C@H](CCC(=O)NCCS(=O)(=O)O)[C@H]1CC[C@H]2[C@@H]3CC[C@@H]4C[C@H](O)CC[C@]4(C)[C@H]3C[C@H](O)[C@]12C [Taurodeoxycholate, taurodeoxycholate]
- effect on [^3 H]taurocholate uptake (in words) [7]: competed more effectively
- effect on [^3 H]taurocholate uptake (in words) ([7]; listed as taurodeoxycholic acid): more effective competitors
- inhibition of [^3 H]taurocholate uptake [7]: 80%
- Ki [2]: 17.3 ± 3.9 µM

Compound: C[C@H](CCC(=O)O)[C@H]1CC[C@H]2[C@@H]3[C@@H](O)C[C@@H]4C[C@H](O)CC[C@]4(C)[C@H]3CC[C@]12C [Ursodeoxycholate, Ursodeoxycholic acid]
- treatment outcome (in words) (cholestasis): improves liver function, but does not stop the progression of the disease
- Ki [2]: 77.1 ± 17.2 µM

Compound: C=CC1=C(C)/C(=C/c2[nH]c(Cc3[nH]c(/C=C4\NC(=O)C(C)=C4C=C)c(C)c3CCC(=O)O)c(CCC(=O)O)c2C)NC1=O [bilirubin]
- competition for liver taurocholate uptake (in words) [6]: compete for liver taurocholate uptake
- effect against the ileal transporter (in words) (ileal transporter): ineffective
